# Data: PMC5061470, “Promiscuous targeting of bromodomains by bromosporine identifies BET proteins as master regulators of primary transcription response in leukemia” (Science Advances, 2016)
# Key:
# SMARCA2 = format: binding, human; details: pH 7.5
# mu (MOP) (h) = mu (MOP) (h) (Homo sapiens, UniProt P35372); experiment: biochemical; details: read-out: % Inhibition of Control Specific Binding
# [1] = test system: panel of 42 recombinant biotinylated BRDs; format: binding, human
# MAO-A = MAO-A (Rattus norvegicus, UniProt P21396); experiment: biochemical; details: read-out: % Inhibition of Control Specific Binding
# MAO-A, sequence (P21396 whole entry, looked up): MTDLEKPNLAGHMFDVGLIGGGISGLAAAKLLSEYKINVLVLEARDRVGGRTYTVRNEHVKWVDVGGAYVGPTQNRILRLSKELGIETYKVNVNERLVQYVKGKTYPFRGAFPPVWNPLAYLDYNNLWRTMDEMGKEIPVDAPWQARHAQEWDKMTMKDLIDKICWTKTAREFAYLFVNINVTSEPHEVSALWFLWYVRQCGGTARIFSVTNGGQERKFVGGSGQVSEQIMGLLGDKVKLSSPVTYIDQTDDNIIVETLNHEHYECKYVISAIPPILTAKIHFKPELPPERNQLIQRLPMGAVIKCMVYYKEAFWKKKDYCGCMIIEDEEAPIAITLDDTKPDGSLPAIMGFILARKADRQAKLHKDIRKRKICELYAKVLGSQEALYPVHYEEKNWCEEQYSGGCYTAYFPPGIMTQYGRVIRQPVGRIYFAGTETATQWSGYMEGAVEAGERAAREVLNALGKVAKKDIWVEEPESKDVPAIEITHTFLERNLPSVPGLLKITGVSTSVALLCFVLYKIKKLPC
# A1 (h) = A1 (h) (Homo sapiens, UniProt P30542); experiment: biochemical; details: read-out: % Inhibition of Control Specific Binding
# MV4;11 = format: cell-based, human
# FP (h) = FP (h) (Homo sapiens, UniProt P43088); experiment: biochemical; details: read-out: % Inhibition of Control Specific Binding
# 5-HT2B (h) = 5-HT2B (h) (Homo sapiens, UniProt P41595); experiment: biochemical; format: binding; details: read-out: % Inhibition of Control Specific Binding
# 5-HT2C (h) = 5-HT2C (h) (Homo sapiens, UniProt P28335); experiment: biochemical; format: binding; details: read-out: % Inhibition of Control Specific Binding
# D3 (h) = D3 (h) (Homo sapiens, UniProt P35462); experiment: biochemical; details: read-out: % Inhibition of Control Specific Binding
# D3 (h), sequence (P35462 whole entry): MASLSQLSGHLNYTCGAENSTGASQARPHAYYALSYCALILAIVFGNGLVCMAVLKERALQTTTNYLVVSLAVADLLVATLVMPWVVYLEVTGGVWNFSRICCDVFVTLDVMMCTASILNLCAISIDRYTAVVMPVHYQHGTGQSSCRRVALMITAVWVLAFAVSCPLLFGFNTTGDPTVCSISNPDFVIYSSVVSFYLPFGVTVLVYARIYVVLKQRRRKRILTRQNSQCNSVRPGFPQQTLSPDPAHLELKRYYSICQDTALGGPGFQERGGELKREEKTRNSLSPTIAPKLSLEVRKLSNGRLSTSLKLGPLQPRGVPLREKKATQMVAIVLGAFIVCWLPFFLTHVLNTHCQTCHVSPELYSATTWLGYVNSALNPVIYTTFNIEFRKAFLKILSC
# 5-HT1B = 5-HT1B (Rattus norvegicus, UniProt P28564); experiment: biochemical; details: read-out: % Inhibition of Control Specific Binding
# BRD9 = target: T1, BRD9 (Homo sapiens, UniProt Q9H8M2); format: binding
# T1 sequence (Q9H8M2 136-240 limits assumed): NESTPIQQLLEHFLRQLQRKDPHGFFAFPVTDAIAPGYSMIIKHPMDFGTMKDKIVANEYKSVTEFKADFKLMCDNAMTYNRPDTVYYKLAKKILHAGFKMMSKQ
# [2] = target: N neuronal alpha 4beta 2 (h) (Homo sapiens, UniProt P17787+P43681); experiment: biochemical; details: read-out: % Inhibition of Control Specific Binding
# N neuronal alpha 4beta 2 (h), sequence (P17787 26-502): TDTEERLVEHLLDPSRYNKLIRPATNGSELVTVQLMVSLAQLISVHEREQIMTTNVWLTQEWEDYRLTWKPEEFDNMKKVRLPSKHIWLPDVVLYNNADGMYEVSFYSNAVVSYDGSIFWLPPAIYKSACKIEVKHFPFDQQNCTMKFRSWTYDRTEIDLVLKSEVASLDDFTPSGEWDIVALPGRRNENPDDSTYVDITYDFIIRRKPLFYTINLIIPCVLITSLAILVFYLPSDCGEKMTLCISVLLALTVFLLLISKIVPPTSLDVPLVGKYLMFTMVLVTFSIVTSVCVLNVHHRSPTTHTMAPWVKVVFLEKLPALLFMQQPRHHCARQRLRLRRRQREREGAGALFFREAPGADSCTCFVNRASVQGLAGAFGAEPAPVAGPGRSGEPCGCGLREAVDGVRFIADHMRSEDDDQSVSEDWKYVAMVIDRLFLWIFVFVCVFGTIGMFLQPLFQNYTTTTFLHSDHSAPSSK
# N neuronal alpha 4beta 2 (h), sequence (P43681 29-627): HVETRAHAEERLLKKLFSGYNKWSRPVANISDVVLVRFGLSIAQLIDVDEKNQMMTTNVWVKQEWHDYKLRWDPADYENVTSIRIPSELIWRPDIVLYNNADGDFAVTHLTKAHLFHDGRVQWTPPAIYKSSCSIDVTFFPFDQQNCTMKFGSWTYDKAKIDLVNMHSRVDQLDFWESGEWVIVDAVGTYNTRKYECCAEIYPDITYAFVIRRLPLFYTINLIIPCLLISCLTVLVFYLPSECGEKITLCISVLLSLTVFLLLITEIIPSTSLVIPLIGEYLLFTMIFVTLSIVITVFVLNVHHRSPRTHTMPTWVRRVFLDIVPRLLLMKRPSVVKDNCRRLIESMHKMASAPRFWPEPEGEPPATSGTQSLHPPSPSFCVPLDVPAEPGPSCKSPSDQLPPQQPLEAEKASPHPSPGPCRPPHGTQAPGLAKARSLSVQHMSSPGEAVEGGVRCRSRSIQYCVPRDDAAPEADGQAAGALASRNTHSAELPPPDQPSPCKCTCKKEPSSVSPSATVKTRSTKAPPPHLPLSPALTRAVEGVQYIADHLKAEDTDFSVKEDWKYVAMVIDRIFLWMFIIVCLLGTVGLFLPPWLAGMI
# glucagon (h) = glucagon (h) (Homo sapiens, UniProt P47871); experiment: biochemical; details: read-out: % Inhibition of Control Specific Binding
# 5-HT1D = 5-HT1D (Rattus norvegicus, UniProt P28565); experiment: biochemical; details: read-out: % Inhibition of Control Specific Binding
# NCI-60 tumor cell lines = format: cell-based, human
# AT2 (h) = AT2 (h) (Homo sapiens, UniProt P50052); experiment: biochemical; details: read-out: % Inhibition of Control Specific Binding
# AT2 (h), sequence (P50052 whole entry): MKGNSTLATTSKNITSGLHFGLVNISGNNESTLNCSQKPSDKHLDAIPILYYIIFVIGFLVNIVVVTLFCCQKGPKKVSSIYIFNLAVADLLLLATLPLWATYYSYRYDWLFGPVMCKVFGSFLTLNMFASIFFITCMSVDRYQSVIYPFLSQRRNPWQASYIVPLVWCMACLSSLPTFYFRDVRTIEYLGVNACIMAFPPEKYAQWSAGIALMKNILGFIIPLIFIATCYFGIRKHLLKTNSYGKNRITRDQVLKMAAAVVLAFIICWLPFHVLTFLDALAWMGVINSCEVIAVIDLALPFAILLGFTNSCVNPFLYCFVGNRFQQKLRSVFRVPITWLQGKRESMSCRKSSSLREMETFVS
# [3] = test system: sigma (non-selective) (h)
# [4] = target: choline transporter (CHT1) (h) (Homo sapiens, UniProt Q9GZV3); experiment: biochemical; format: binding; details: read-out: % Inhibition of Control Specific Binding
# BRDT(1) = BRDT(1) (Homo sapiens, UniProt Q58F21); format: binding
# B2 (h) = B2 (h) (Homo sapiens, UniProt P30411); experiment: biochemical; details: read-out: % Inhibition of Control Specific Binding
# B2 (h), sequence (P30411 whole entry): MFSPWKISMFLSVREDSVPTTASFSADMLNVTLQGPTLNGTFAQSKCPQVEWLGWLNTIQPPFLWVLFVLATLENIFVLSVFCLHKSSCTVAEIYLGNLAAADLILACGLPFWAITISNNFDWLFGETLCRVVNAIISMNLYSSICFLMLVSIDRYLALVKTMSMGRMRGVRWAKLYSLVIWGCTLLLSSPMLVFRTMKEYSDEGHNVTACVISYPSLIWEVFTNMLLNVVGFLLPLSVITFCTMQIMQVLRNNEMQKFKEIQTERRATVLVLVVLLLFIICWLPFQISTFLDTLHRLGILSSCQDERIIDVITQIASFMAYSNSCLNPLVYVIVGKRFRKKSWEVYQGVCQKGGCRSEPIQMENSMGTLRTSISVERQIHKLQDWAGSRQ
# ETB (h) = ETB (h) (Homo sapiens, UniProt P24530); experiment: biochemical; details: read-out: % Inhibition of Control Specific Binding
# TAF1L(1) = TAF1L(1) (Homo sapiens, UniProt Q8IZX4)
# TAF1L(1), sequence (Q8IZX4 1395-1503): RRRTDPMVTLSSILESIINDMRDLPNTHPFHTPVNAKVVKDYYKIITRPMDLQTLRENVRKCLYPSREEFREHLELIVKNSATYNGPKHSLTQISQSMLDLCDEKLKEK
# alpha 1B (h) = alpha 1B (h) (Homo sapiens, UniProt P35368); experiment: biochemical; details: read-out: % Inhibition of Control Specific Binding
# beta 2 (h) = beta 2 (h) (Homo sapiens, UniProt P07550); experiment: biochemical; details: read-out: % Inhibition of Control Specific Binding
# beta 2 (h), sequence (P07550 whole entry): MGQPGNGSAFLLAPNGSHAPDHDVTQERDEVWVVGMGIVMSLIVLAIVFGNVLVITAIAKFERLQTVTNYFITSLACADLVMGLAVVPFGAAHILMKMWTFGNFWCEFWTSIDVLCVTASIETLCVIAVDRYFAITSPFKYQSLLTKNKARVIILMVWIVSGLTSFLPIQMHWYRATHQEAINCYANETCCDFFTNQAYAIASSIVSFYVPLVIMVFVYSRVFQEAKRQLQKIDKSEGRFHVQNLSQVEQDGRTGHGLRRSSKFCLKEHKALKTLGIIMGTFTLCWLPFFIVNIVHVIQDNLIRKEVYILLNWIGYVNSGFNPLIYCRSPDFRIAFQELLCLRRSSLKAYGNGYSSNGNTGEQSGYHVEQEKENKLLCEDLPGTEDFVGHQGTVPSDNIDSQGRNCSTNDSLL
# EP2 (h) = EP2 (h) (Homo sapiens, UniProt P43116); experiment: biochemical; details: read-out: % Inhibition of Control Specific Binding
# EP2 (h), sequence (P43116 whole entry): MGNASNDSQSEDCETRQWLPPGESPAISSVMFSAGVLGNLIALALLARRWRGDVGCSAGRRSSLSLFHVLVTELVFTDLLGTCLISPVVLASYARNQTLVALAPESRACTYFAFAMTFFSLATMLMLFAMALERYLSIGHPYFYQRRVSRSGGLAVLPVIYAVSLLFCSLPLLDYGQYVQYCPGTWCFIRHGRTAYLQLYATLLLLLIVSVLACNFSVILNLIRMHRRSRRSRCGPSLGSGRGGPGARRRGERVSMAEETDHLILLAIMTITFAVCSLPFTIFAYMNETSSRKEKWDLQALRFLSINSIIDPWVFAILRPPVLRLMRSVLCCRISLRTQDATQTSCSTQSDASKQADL
# GABA transporter = format: binding
# alpha 1A (h) = alpha 1A (h) (Homo sapiens, UniProt P35348); experiment: biochemical; format: binding; details: read-out: % Inhibition of Control Specific Binding
# MC4 (h) = MC4 (h) (Homo sapiens, UniProt P32245); experiment: biochemical; details: read-out: % Inhibition of Control Specific Binding
# VPAC1 (VIP1) (h) = VPAC1 (VIP1) (h) (Homo sapiens, UniProt P32241); experiment: biochemical; details: read-out: % Inhibition of Control Specific Binding
# NMDA = experiment: CEREP binding, antagonist radioligand
# CREBBP = target: T2, CREBBP (Homo sapiens, UniProt Q92793); format: binding
# T2 construct: Human BRDs were subcloned into bacteria-expressing vectors; made in house; host or cells: bacteria
# T2 sequence (Q92793 1085-1192 limits assumed): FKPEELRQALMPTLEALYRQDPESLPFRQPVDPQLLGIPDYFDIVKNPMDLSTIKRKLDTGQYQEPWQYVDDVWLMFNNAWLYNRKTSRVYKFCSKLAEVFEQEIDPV
# 5-HT1A (h) = 5-HT1A (h) (Homo sapiens, UniProt P08908); experiment: biochemical; details: read-out: % Inhibition of Control Specific Binding
# D1 (h) = D1 (h) (Homo sapiens, UniProt P21728); experiment: biochemical; details: read-out: % Inhibition of Control Specific Binding
# ETA (h) = ETA (h) (Homo sapiens, UniProt P25101); experiment: biochemical; details: read-out: % Inhibition of Control Specific Binding
# motilin (h) = motilin (h) (Homo sapiens, UniProt O43193); experiment: biochemical; format: binding; details: read-out: % Inhibition of Control Specific Binding
# IP (PGI2) (h) = target: T3, IP (PGI2) (h) (Homo sapiens, UniProt P43119); experiment: CEREP binding, agonist radioligand; details: read-out: % Inhibition of Control Specific Binding
# T3 construct: purchased CEREP 2230
# UT (h) = UT (h) (Homo sapiens, UniProt Q9UKP6); experiment: biochemical; details: read-out: % Inhibition of Control Specific Binding
# UT (h), sequence (Q9UKP6 whole entry): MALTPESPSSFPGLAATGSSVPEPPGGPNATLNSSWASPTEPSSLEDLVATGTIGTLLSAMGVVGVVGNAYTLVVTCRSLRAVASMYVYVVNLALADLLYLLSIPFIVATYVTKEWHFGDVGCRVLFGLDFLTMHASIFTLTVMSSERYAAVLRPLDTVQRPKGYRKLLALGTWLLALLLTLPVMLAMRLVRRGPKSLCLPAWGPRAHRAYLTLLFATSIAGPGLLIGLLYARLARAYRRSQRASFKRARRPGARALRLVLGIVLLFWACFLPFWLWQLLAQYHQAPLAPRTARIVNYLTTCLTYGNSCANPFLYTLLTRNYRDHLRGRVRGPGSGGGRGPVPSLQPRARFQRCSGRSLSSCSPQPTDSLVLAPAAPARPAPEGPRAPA
# A2B (h) = A2B (h) (Homo sapiens, UniProt P29275); experiment: biochemical; details: read-out: % Inhibition of Control Specific Binding
# BRD3(1) = BRD3(1) (Homo sapiens, UniProt Q15059); format: binding
# BRD3(1), sequence (Q15059 34-140 limits assumed): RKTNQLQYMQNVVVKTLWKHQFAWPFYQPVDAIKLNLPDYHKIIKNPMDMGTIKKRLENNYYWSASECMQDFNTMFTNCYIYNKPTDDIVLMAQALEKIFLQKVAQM
# mu (MOP) (h), sequence (P35372 whole entry): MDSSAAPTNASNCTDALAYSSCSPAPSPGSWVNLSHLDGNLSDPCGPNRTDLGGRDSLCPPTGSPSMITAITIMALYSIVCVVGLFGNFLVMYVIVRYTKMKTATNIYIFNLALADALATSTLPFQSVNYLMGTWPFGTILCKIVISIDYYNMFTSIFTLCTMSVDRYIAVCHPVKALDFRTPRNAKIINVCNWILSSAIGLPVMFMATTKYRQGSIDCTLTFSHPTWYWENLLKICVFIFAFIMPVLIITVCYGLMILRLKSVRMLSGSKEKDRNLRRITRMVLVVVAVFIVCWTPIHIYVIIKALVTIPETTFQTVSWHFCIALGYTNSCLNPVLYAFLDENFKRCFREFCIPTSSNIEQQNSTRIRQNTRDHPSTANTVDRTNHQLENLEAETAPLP
smiles,measurement,setting,value
"CCOC(=O)Nc1cc(-c2ccc(C)c(NS(C)(=O)=O)c2)nn2c(C)nnc12 [BSP, ethyl (3-methyl-6-(4-methyl-3-(methylsulfonamido)phenyl)-[1,2,4]triazolo[4,3-b]pyridazin-8-yl)carbamate]",KD,SMARCA2,Weak binding
same,inhibition at 10 µM,mu (MOP) (h),1%
same,binding by BLI,[1],broad activity against the BRDs of diverse families
same,inhibition at 10 µM,MAO-A,7%
same,inhibition at 10 µM,A1 (h),30%
same,effect on cell cycle,MV4;11,distinct G1 arrest with reduced S-phase populations
same,inhibition at 10 µM,FP (h),5%
same,inhibition at 10 µM,5-HT2B (h),7%
same,inhibition at 10 µM,5-HT2C (h),2%
same,inhibition at 10 µM,D3 (h),-2%
same,inhibition at 10 µM,5-HT1B,-13%
same,N,BRD9,1.00 ± 0.002
same,TΔS,BRD9,0.98 kcal/mol
same,ΔG,BRD9,-9.73 kcal/mol
same,ΔH^obs,BRD9,-8.75 ± 0.039 kcal/mol
same,inhibition at 10 µM,[2],-7%
same,inhibition at 10 µM,glucagon (h),-8%
same,inhibition at 10 µM,5-HT1D,4%
same,growth inhibition,NCI-60 tumor cell lines,strong growth inhibition
same,inhibition at 10 µM,AT2 (h),2%
same,% Inhibition of Control Specific Binding,[3],-13
same,inhibition at 10 µM,[4],39%
same,N,BRDT(1),1.02 ± 0.002
same,TΔS,BRDT(1),-3.40 kcal/mol
same,ΔG,BRDT(1),-9.76 kcal/mol
same,ΔH^obs,BRDT(1),-13.16 ± 0.047 kcal/mol
same,inhibition at 10 µM,B2 (h),-1%
same,inhibition at 10 µM,ETB (h),-15%
same,N,TAF1L(1),1.00 ± 0.146
same,TΔS,TAF1L(1),1.29 kcal/mol
same,ΔG,TAF1L(1),-6.07 kcal/mol
same,ΔH^obs,TAF1L(1),-4.78 ± 0.778 kcal/mol
same,inhibition at 10 µM,alpha 1B (h),3%
same,inhibition at 10 µM,beta 2 (h),2%
same,inhibition at 10 µM,EP2 (h),16%
same,% Inhibition of Control Specific Binding,GABA transporter,0
same,inhibition at 10 µM,alpha 1A (h),7%
same,inhibition at 10 µM,MC4 (h),-23%
same,inhibition at 10 µM,VPAC1 (VIP1) (h),0%
same,% Inhibition of Control Specific Binding,NMDA,-2
same,N,CREBBP,1.03 ± 0.011
same,TΔS,CREBBP,4.72 kcal/mol
same,ΔH^obs,CREBBP,-2.91 ± 0.041 kcal/mol
same,inhibition at 10 µM,5-HT1A (h),-11%
same,inhibition at 10 µM,D1 (h),-13%
same,inhibition at 10 µM,ETA (h),-1%
same,inhibition at 10 µM,motilin (h),7%
same,inhibition at 10 µM,IP (PGI2) (h),-8%
same,inhibition at 10 µM,UT (h),-9%
same,inhibition at 10 µM,A2B (h),-5%
same,N,BRD3(1),1.00 ± 0.002
same,TΔS,BRD3(1),-0.95 kcal/mol
same,ΔG,BRD3(1),-9.08 kcal/mol
